# Data taken from patent US6737383B1, “Herbicidal oxadiazolidines” (priority 1999, dated 2004).
# How the values were obtained:
# cocklebur = assay: Test B pre/postemergence cocklebur; assay type: in vivo, Xanthium strumarium
# How it was run: (§1)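 Test chemicals in a non-phytotoxic solvent mixture with surfactant were sprayed preemergence onto planted seeds and postemergence onto plants 2 to 18 cm tall (1- to 4-leaf stage). After twelve to sixteen days in a greenhouse, injury was visually rated against untreated controls from 0 (no effect) to 10 (complete control).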
# giant foxtail = assay: Test B pre/postemergence giant foxtail; assay type: in vivo, Setaria faberii
# How it was run: as §1
# wild oat = assay: Test B pre/postemergence wild oat; assay type: in vivo, Avena fatua
# How it was run: as §1
# smallflower flatsedge = assay: Test B flood test smallflower flatsedge; assay type: in vivo, Cyperus difformis
# How it was run: (§2)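 Each value is a visual injury score relative to controls, with 10 meaning complete control and 0 no effect. Evaluation took place twelve to sixteen days after the 2-leaf-stage plants were treated and kept in the greenhouse.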
# purple nutsedge = assay: Test B pre/postemergence purple nutsedge; assay type: in vivo, Cyperus rotundus
# How it was run: as §1
# bamyardgrass = assay: Test B flood test barnyardgrass; assay type: in vivo, Echinochloa crus-galli
# How it was run: as §2
# sugar beet = assay: Test B pre/postemergence sugar beet; assay type: in vivo, Beta vulgaris
# How it was run: as §1
# surinam grass = assay: Test B pre/postemergence surinam grass; assay type: in vivo, Brachiaria decumbens
# How it was run: as §1
# wheat = assay: Test B pre/postemergence wheat; assay type: in vivo, Triticum aestivum
# How it was run: as §1
# soybean = assay: Test B pre/postemergence soybean; assay type: in vivo, Glycine max
# How it was run: as §1
# corn = assay: Test B pre/postemergence corn; assay type: in vivo, Zea mays
# How it was run: as §1
# velvetleaf = assay: Test B pre/postemergence velvetleaf; assay type: in vivo, Abutilon theophrasti
# How it was run: as §1
# morningglory = assay: Test B pre/postemergence morningglory; assay type: in vivo, Ipomoea hederacea
# How it was run: as §1
# crabgrass = assay: Test B pre/postemergence crabgrass; assay type: in vivo, Digitaria sanguinalis
# How it was run: as §1
# rape = assay: Test B pre/postemergence rape; assay type: in vivo, Brassica napus
# How it was run: as §1
# rice = assay: Test B flood test rice; assay type: in vivo, Oryza sativa
# How it was run: as §2
# duck salad = assay: Test B flood test duck salad; assay type: in vivo, Heteranthera limosa
# How it was run: as §2
# bedstraw = assay: Test B pre/postemergence bedstraw; assay type: in vivo, Galium aparine; conditions: Preemergence
# How it was run: as §1
# pigweed = assay: Test B pre/postemergence pigweed; assay type: in vivo, Amaranthus retroflexus
# How it was run: as §1
# blackgrass = assay: Test B pre/postemergence blackgrass; assay type: in vivo, Alopecurus myosuroides
# How it was run: as §1
# [1] = Postemergence, Rate 31 g/ha, visual rating, scale 0 to 10 (0 no effect, 10 complete control)
# [2] = Postemergence, Rate 125 g/ha, scale 0 to 10, 0 is no effect, 10 is complete control
# [3] = Postemergence, Rate 250 g/ha, scale 0 to 10, 0 is no effect, 10 is complete control
# [4] = Preemergence, Rate 31 g/ha, visual rating, scale 0 to 10 (0 no effect, 10 complete control)
# [5] = Preemergence, Rate 62 g/ha, scale 0 to 10 (0 no effect, 10 complete control)
# [6] = Preemergence, Rate 125 g/ha, scale of 0 to 10 where 0 is no effect and 10 is complete control
# [7] = Preemergence, Rate 250 g/ha, scale of 0 to 10 where 0 is no effect and 10 is complete control
# [8] = Rate 62 g/ha, Postemergence, scale of 0 to 10 where 0 is no effect and 10 is complete control
# [9] = Rate 31 g/ha, Pre-emergence section (flood test species), scale 0 to 10
# [10] = Rate 62 g/ha, flood test species, Pre-emergence, visual evaluation after twelve to sixteen days
# [11] = Rate 125 g/ha, under heading Pre-emergence, flood test species, visual evaluation after twelve to sixteen days
# [12] = Rate 250 g/ha, Pre-emergence, flood-test species, scale 0 to 10, 0 is no effect, 10 is complete control
smiles,measurement,setting,value
CC(C)N(C(=O)n1oc(=O)n([C@@H]2C[C@H]2C)c1=O)c1ccc(F)cc1 (relative stereo) [Compound 392],Cocklebur plant response rating,cocklebur; [1],0
same,"Plant response rating, Cocklebur",cocklebur; [2],2
same,"Plant response rating, Cocklebur",cocklebur; [3],2
same,Cocklebur plant response rating,cocklebur; [4],0
same,"Plant response rating, Cocklebur",cocklebur; [5],0
same,"Plant response rating, Cocklebur",cocklebur; [6],0
same,Cocklebur plant response rating,cocklebur; [7],0
same,Cocklebur plant response rating,cocklebur; [8],0
same,Giant foxtail plant response rating,giant foxtail; [1],7
same,"Plant response rating, Giant foxtail",giant foxtail; [2],9
same,"Plant response rating, Giant foxtail",giant foxtail; [3],9
same,Giant foxtail plant response rating,giant foxtail; [4],10
same,"Plant response rating, Giant foxtail",giant foxtail; [5],10
same,"Plant response rating, Giant foxtail",giant foxtail; [6],10
same,Giant foxtail plant response rating,giant foxtail; [7],10
same,Giant foxtail plant response rating,giant foxtail; [8],7
same,Wild oats plant response rating,wild oat; [1],0
same,"Plant response rating, Wild oats",wild oat; [5],2
same,"Plant response rating, Wild oats",wild oat; [6],9
same,Wild oats plant response rating,wild oat; [7],10
same,Wild oats plant response rating,wild oat; [8],0
same,S. Flatsedge plant response rating,smallflower flatsedge; [9],0
same,"Plant response rating, S. Flatsedge (0 to 10 scale, 0 is no effect, 10 is complete control)",smallflower flatsedge; [10],0
same,"S. Flatsedge plant response rating (0 to 10 scale, 0 is no effect, 10 is complete control)",smallflower flatsedge; [11],0
same,S. Flatsedge plant response rating,smallflower flatsedge; [12],0
same,Nutsedge plant response rating,purple nutsedge; [1],0
same,"Plant response rating, Nutsedge",purple nutsedge; [3],0
same,"Plant response rating, Nutsedge",purple nutsedge; [5],0
same,"Plant response rating, Nutsedge",purple nutsedge; [6],0
same,Nutsedge plant response rating,purple nutsedge; [7],0
same,Nutsedge plant response rating,purple nutsedge; [8],0
same,Barnyardgrass plant response rating,bamyardgrass; [9],0
same,"Plant response rating, Barnyardgrass (0 to 10 scale, 0 is no effect, 10 is complete control)",bamyardgrass; [10],0
same,"Barnyardgrass plant response rating (0 to 10 scale, 0 is no effect, 10 is complete control)",bamyardgrass; [11],0
same,Barnyardgrass plant response rating,bamyardgrass; [12],0
same,Sugarbeets plant response rating,sugar beet; [1],0
same,"Plant response rating, Sugarbeets",sugar beet; [3],0
same,"Plant response rating, Sugarbeets",sugar beet; [5],0
same,"Plant response rating, Sugarbeets",sugar beet; [6],3
same,Sugarbeets plant response rating,sugar beet; [7],7
same,Sugarbeets plant response rating,sugar beet; [8],0
same,B. signalgrass plant response rating,surinam grass; [1],0
same,"Plant response rating, B. signalgrass",surinam grass; [2],5
same,"Plant response rating, B. signalgrass",surinam grass; [3],7
same,B. signalgrass plant response rating,surinam grass; [4],0
same,"Plant response rating, B. signalgrass",surinam grass; [5],2
same,"Plant response rating, B. signalgrass",surinam grass; [6],3
same,B. signalgrass plant response rating,surinam grass; [7],9
same,B. signalgrass plant response rating,surinam grass; [8],1
same,Wheat plant response rating,wheat; [1],0
same,"Plant response rating, Wheat",wheat; [5],0
same,"Plant response rating, Wheat",wheat; [6],3
same,Wheat plant response rating,wheat; [7],8
same,Wheat plant response rating,wheat; [8],0
same,Soybean plant response rating,soybean; [1],1
same,"Plant response rating, Soybean",soybean; [3],2
same,"Plant response rating, Soybean",soybean; [5],0
same,"Plant response rating, Soybean",soybean; [6],0
same,Soybean plant response rating,soybean; [7],0
same,Soybean plant response rating,soybean; [8],1
same,Corn plant response rating,corn; [1],0
same,"Plant response rating, Corn",corn; [2],0
same,"Plant response rating, Corn",corn; [3],0
same,Corn plant response rating,corn; [4],0
same,"Plant response rating, Corn",corn; [5],0
same,"Plant response rating, Corn",corn; [6],3
same,Corn plant response rating,corn; [7],9
same,Corn plant response rating,corn; [8],0
same,Velvetleaf plant response rating,velvetleaf; [1],0
same,"Plant response rating, Velvetleaf",velvetleaf; [3],2
same,"Plant response rating, Velvetleaf",velvetleaf; [5],0
same,"Plant response rating, Velvetleaf",velvetleaf; [6],3
same,Velvetleaf plant response rating,velvetleaf; [7],5
same,Velvetleaf plant response rating,velvetleaf; [8],0
same,Morningglory plant response rating,morningglory; [1],3
same,"Plant response rating, Morningglory",morningglory; [3],7
same,"Plant response rating, Morningglory",morningglory; [5],0
same,"Plant response rating, Morningglory",morningglory; [6],0
same,Morningglory plant response rating,morningglory; [7],0
same,Morningglory plant response rating,morningglory; [8],5
same,Crabgrass plant response rating,crabgrass; [1],1
same,"Plant response rating, Crabgrass",crabgrass; [2],2
same,"Plant response rating, Crabgrass",crabgrass; [3],7
same,Crabgrass plant response rating,crabgrass; [4],8
same,"Plant response rating, Crabgrass",crabgrass; [5],10
same,"Plant response rating, Crabgrass",crabgrass; [6],10
same,Crabgrass plant response rating,crabgrass; [7],10
same,Crabgrass plant response rating,crabgrass; [8],2
same,Rape plant response rating,rape; [1],0
same,"Plant response rating, Rape",rape; [3],0
same,"Plant response rating, Rape",rape; [5],0
same,"Plant response rating, Rape",rape; [6],0
same,Rape plant response rating,rape; [7],5
same,Rape plant response rating,rape; [8],0
same,Rice plant response rating,rice; [9],0
same,"Plant response rating, Rice (0 to 10 scale, 0 is no effect, 10 is complete control)",rice; [10],0
same,"Rice plant response rating (0 to 10 scale, 0 is no effect, 10 is complete control)",rice; [11],0
same,Rice plant response rating,rice; [12],0
same,Ducksalad plant response rating,duck salad; [9],0
same,"Plant response rating, Ducksalad (0 to 10 scale, 0 is no effect, 10 is complete control)",duck salad; [10],0
same,"Ducksalad plant response rating (0 to 10 scale, 0 is no effect, 10 is complete control)",duck salad; [11],0
same,Ducksalad plant response rating,duck salad; [12],0
same,Bedstraw plant response rating,"bedstraw; Rate 31 g/ha, visual rating, scale 0 to 10 (0 no effect, 10 complete control)",0
same,"Plant response rating, Bedstraw","bedstraw; Rate 125 g/ha, scale of 0 to 10 where 0 is no effect and 10 is complete control",8
same,Bedstraw plant response rating,"bedstraw; Rate 250 g/ha, scale of 0 to 10 where 0 is no effect and 10 is complete control",10
same,Redroot pigweed plant response rating,pigweed; [1],0
same,"Plant response rating, Redroot pigweed",pigweed; [3],6
same,"Plant response rating, Redroot pigweed",pigweed; [5],2
same,"Plant response rating, Redroot pigweed",pigweed; [6],7
same,Redroot pigweed plant response rating,pigweed; [7],10
same,Redroot pigweed plant response rating,pigweed; [8],0
same,Blackgrass plant response rating,blackgrass; [1],7
same,"Plant response rating, Blackgrass",blackgrass; [2],10
same,"Plant response rating, Blackgrass",blackgrass; [3],10
same,Blackgrass plant response rating,blackgrass; [4],2
same,"Plant response rating, Blackgrass",blackgrass; [5],6
same,"Plant response rating, Blackgrass",blackgrass; [6],8
same,Blackgrass plant response rating,blackgrass; [7],10
same,Blackgrass plant response rating,blackgrass; [8],7
